# From PubChem BioAssay AID2060483 (Molecular Pharmacology Branch, DTP, NCI, 2025)
# System: K24384-001-R-PDC complex spheroids, viability
# Assay: Anticancer human tumor K24384-001-R-PDC patient-derived pancreatic adenocarcinoma cell line growth inhibition [GQUAD]
# Conditions: for IC50: curve of first compound; for viability, T/C: stronger effect = lower value
# Source text: DNA G-quadruplex Stabilizer Agents in Combinations in Complex Spheroids
# A high-throughput screen of multi-cell type tumor spheroids was designed to identify active combinations of DNA G-quadruplex stabilizer agents and targeted small molecules. Complex spheroids include a stromal component modeled by human endothelial cells (HUVEC) and fibroblasts modeled by human mesenchymal stem cells (MSCs). The concentration ranges selected for each drug and investigational agent were based upon clinically achievable concentrations if the clinical Cmax of the agent was known.
# Compounds. The drugs and investigational agents: pidnarulex (CX-5461; NSC782164), APTO-253 (NSC789042), BRACO-19 (NSC847499), peposertib (NSC802822), ceralasertib (NSC780249), elimusertib (NSC800525), camonsertib (NSC841442), AZD-1390 (NSC803789), olaparib (NSC753686), talazoparib (NSC767125), ART-558 (NSC835418), sotorasib (NSC818433), MRTX-1133 (NSC836407), SN-38 (NSC673596), topotecan (NSC609699), etoposide (NSC141540), doxorubicin (NSC123127), gemcitabine (NSC613327), 5-fluorouracil (NSC19893), paclitaxel (NSC125973), vemurafenib (NSC761431), panobinostat (NSC761190), R-306465 (JNJ-16241199; NSC773264), adavosertib (NSC754352), TP-3654 (NSC805149), carboplatin (NSC241240), KSQ-4279 (NSC840948), and staurosporine (NSC755774) were obtained from the National Cancer Institute (NCI) Developmental Therapeutics Program Chemical Repository (34). The FDA-approved anticancer drug set is available from the NCI Developmental Therapeutics Program. […] The stock solutions were prepared in dimethyl sulfoxide (DMSO, Sigma-Aldrich, St. Louis, MO, cat. D2650) at 800-fold the tested concentration and stored at -70 degrees C prior to their use. All drugs and investigational agents were tested over a range starting from a high concentration at or near the clinical Cmax and decreasing in half-log increments. If the clinical Cmax for an agent had not been determined, the highest concentration tested was 10 microM.
# 2.3 Cell Culture. All cells were maintained in an incubator at 37 degrees C and 5% CO2 with 95% humidity. The PDC lines were cultured according to standard operating procedures established by the NCI PDMR. All PDCs were thawed and cultured in Matrigel-coated flasks prepared with a working solution of 1X Ham's F-12 nutrient mix, without supplementation (Invitrogen, cat. 11765054), 100 U/mL penicillin-streptomycin (Invitrogen, cat. 15140122), and 2.5% Matrigel (Corning Inc., cat. 354248) for the first three passages. The 857933-349-R-J2-PDC line was cultured in 6C/Colon 1B media, which includes advanced DMEM/F-12 (Thermo Fisher Scientific, cat. 12634028), 10 mM HEPES (Thermo Fisher Scientific, cat. 15630080), 1X GlutaMAX supplement (Thermo Fisher Scientific, cat. 35050061), 0.1 mg/mL primocin (InvivoGen, cat. ant-pm-2), 10% defined fetal bovine serum, heat inactivated (HyClone Laboratories Inc., cat. SH30070.03HI), 50% L-WRN conditioned media (ATCC, cat. CRL-3276), 1.25 mM N-Acetyl-L-cysteine (Sigma-Aldrich, cat. A9165), 10 mM nicotinamide (Sigma-Aldrich, cat. N0636), 1X B-27 supplement (Thermo Fisher Scientific, cat. 17504044), 1X N-2 supplement (Thermo Fisher Scientific, cat. 17502048), 10 microM Y-27632 dihydrochloride (Tocris Bioscience, cat. 1254), and 50 ng/mL human EGF recombinant protein (Thermo Fisher Scientific, cat. PHG0311). The 485176-168-R4-J1-PDC line was cultured in Panc media, which includes all 6C/Colon 1B media components plus 100 ng/mL human FGF-10 (Thermo Fisher Scientific, cat. 100-26), 500 nM SB-431542 (Selleckchem, cat. S1067), and gastrin (Tocris, cat. 3006).
# […]
# [1] = second compound 0.0316 µM, first compound 0.0316 µM
# [2] = second compound 0.0316 µM, first compound 0.316 µM
# [3] = second compound 0.1 µM, first compound 0.0316 µM
# [4] = second compound 0.1 µM, first compound 0.316 µM
# [5] = second compound 0.316 µM, first compound 0.0316 µM
# [6] = second compound 0.316 µM, first compound 0.316 µM
# [7] = second compound 1 µM, first compound 0.0316 µM
# [8] = second compound 1 µM, first compound 0.316 µM
# [9] = second compound 3.16 µM, first compound 0.0316 µM
# [10] = second compound 3.16 µM, first compound 0.316 µM
# [11] = second compound 10 µM, first compound 0.0316 µM
# [12] = second compound 10 µM, first compound 0.316 µM
# 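Also: spheroids exposed to compounds for seven days.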
structure (smiles),measurement,setting,value
COc1ccc([C@@H](O)c2cc(-c3ncnc4cc(N5CCOCC5)ccc34)c(F)cc2Cl)nn1 + CN(C)c1ccc(Nc2c3ccc(NC(=O)CCN4CCCC4)cc3nc3cc(NC(=O)CCN4CCCC4)ccc23)cc1,IC50,second compound 0.0316 µM,2100 nM
same,IC50,second compound 0.1 µM,2600 nM
same,IC50,second compound 0.316 µM,1610 nM
same,IC50,second compound 1 µM,1930 nM
same,IC50,second compound 3.16 µM,2540 nM
same,IC50,second compound 10 µM,1080 nM
same,"viability, T/C",[1],98.6%
same,"viability, T/C","second compound 0.0316 µM, first compound 0.1 µM",86.4%
same,"viability, T/C",[2],81.2%
same,"viability, T/C","second compound 0.0316 µM, first compound 1 µM",58.7%
same,"viability, T/C","second compound 0.0316 µM, first compound 3.16 µM",44.3%
same,"viability, T/C","second compound 0.0316 µM, first compound 10 µM",36.5%
same,"viability, T/C",[3],89.5%
same,"viability, T/C","second compound 0.1 µM, first compound 0.1 µM",96.5%
same,"viability, T/C",[4],102%
same,"viability, T/C","second compound 0.1 µM, first compound 1 µM",76.6%
same,"viability, T/C","second compound 0.1 µM, first compound 3.16 µM",45.9%
same,"viability, T/C","second compound 0.1 µM, first compound 10 µM",34.9%
same,"viability, T/C",[5],91.4%
same,"viability, T/C","second compound 0.316 µM, first compound 0.1 µM",109%
same,"viability, T/C",[6],83.8%
same,"viability, T/C","second compound 0.316 µM, first compound 1 µM",56.8%
same,"viability, T/C","second compound 0.316 µM, first compound 3.16 µM",42.5%
same,"viability, T/C","second compound 0.316 µM, first compound 10 µM",25.8%
same,"viability, T/C",[7],82.1%
same,"viability, T/C","second compound 1 µM, first compound 0.1 µM",83.1%
same,"viability, T/C",[8],84.8%
same,"viability, T/C","second compound 1 µM, first compound 1 µM",62.4%
same,"viability, T/C","second compound 1 µM, first compound 3.16 µM",40.3%
same,"viability, T/C","second compound 1 µM, first compound 10 µM",23.4%
same,"viability, T/C",[9],91.9%
same,"viability, T/C","second compound 3.16 µM, first compound 0.1 µM",95.4%
same,"viability, T/C",[10],72.2%
same,"viability, T/C","second compound 3.16 µM, first compound 1 µM",75.5%
same,"viability, T/C","second compound 3.16 µM, first compound 3.16 µM",42.4%
same,"viability, T/C","second compound 3.16 µM, first compound 10 µM",22.5%
same,"viability, T/C",[11],67.3%
same,"viability, T/C","second compound 10 µM, first compound 0.1 µM",73.6%
same,"viability, T/C",[12],72.3%
same,"viability, T/C","second compound 10 µM, first compound 1 µM",44.3%
same,"viability, T/C","second compound 10 µM, first compound 3.16 µM",34.3%
same,"viability, T/C","second compound 10 µM, first compound 10 µM",12.3%
Cn1ncnc1[C@H]1c2n[nH]c(=O)c3cc(F)cc(c23)N[C@@H]1c1ccc(F)cc1 + CN(C)c1ccc(Nc2c3ccc(NC(=O)CCN4CCCC4)cc3nc3cc(NC(=O)CCN4CCCC4)ccc23)cc1,IC50,second compound 0.0316 µM,> 316 nM
same,IC50,second compound 0.1 µM,> 316 nM
same,IC50,second compound 0.316 µM,> 316 nM
same,IC50,second compound 1 µM,> 316 nM
same,IC50,second compound 3.16 µM,> 316 nM
same,IC50,second compound 10 µM,> 316 nM
same,"viability, T/C","second compound 0.0316 µM, first compound 0.000999 µM",101%
same,"viability, T/C","second compound 0.0316 µM, first compound 0.00316 µM",82.2%
same,"viability, T/C","second compound 0.0316 µM, first compound 0.00999 µM",108%
same,"viability, T/C",[1],81.4%
same,"viability, T/C","second compound 0.0316 µM, first compound 0.0999 µM",80.9%
same,"viability, T/C",[2],86.1%
same,"viability, T/C","second compound 0.1 µM, first compound 0.000999 µM",82.9%
same,"viability, T/C","second compound 0.1 µM, first compound 0.00316 µM",125%
same,"viability, T/C","second compound 0.1 µM, first compound 0.00999 µM",92.2%
same,"viability, T/C",[3],81.2%
same,"viability, T/C","second compound 0.1 µM, first compound 0.0999 µM",107%
same,"viability, T/C",[4],93%
same,"viability, T/C","second compound 0.316 µM, first compound 0.000999 µM",85.1%
same,"viability, T/C","second compound 0.316 µM, first compound 0.00316 µM",89.5%
same,"viability, T/C","second compound 0.316 µM, first compound 0.00999 µM",105%
same,"viability, T/C",[5],70%
same,"viability, T/C","second compound 0.316 µM, first compound 0.0999 µM",79.7%
same,"viability, T/C",[6],77.3%
same,"viability, T/C","second compound 1 µM, first compound 0.000999 µM",90.4%
same,"viability, T/C","second compound 1 µM, first compound 0.00316 µM",91.2%
same,"viability, T/C","second compound 1 µM, first compound 0.00999 µM",88%
same,"viability, T/C",[7],87.1%
same,"viability, T/C","second compound 1 µM, first compound 0.0999 µM",100%
same,"viability, T/C",[8],69.4%
same,"viability, T/C","second compound 3.16 µM, first compound 0.000999 µM",101%
same,"viability, T/C","second compound 3.16 µM, first compound 0.00316 µM",85.7%
same,"viability, T/C","second compound 3.16 µM, first compound 0.00999 µM",77.8%
same,"viability, T/C",[9],92.3%
same,"viability, T/C","second compound 3.16 µM, first compound 0.0999 µM",91.7%
same,"viability, T/C",[10],65.5%
same,"viability, T/C","second compound 10 µM, first compound 0.000999 µM",88.2%
same,"viability, T/C","second compound 10 µM, first compound 0.00316 µM",75.1%
same,"viability, T/C","second compound 10 µM, first compound 0.00999 µM",82.9%
same,"viability, T/C",[11],118%
same,"viability, T/C","second compound 10 µM, first compound 0.0999 µM",110%
same,"viability, T/C",[12],54.8%
